Data published in patent US10058099B2, “Antimicrobial materials and methods” (University of Florida Research Foundation, Inc., priority 2011, dated 2018).
≈ marks a conversion by molar mass, not a printed value. Like-named read-outs stand apart in the source and are kept apart here.

Key:
E. coli K12 biofilms = experiment: Minimum inhibitory concentration (MIC) with the Calgary Biofilm Device (MBEC assay); format: cell-based, Escherichia coli K-12; conditions: 24 h, dark, 37 °C, 90% inhibition of growth, OD 600 nm
Experimental: To screen the effectiveness of EO-OPEs shown above at killing bacteria residing in a biofilm, a Calgary Biofilm Device (CBD), commercially available as the MBEC™ assay was used to grow 96 equivalent biofilms at a time, and to determine the minimum inhibitory concentration (MIC). After incubating the CBD devise in Escherichia coli (E. coli K12) suspension in LB media for 24 hours, biofilms were uniformly formed on the CBD surface. The E. coli biofilms were then incubated with EO-OPEs for 24 hours to obtain their MIC values.
(§1) Escherichia coli K-12 was obtained from the American Type Culture Collection (ATCC #10798), revived in Luria Broth (LB, Sigma) and stored in LB with 20% (v/v) glycerol at −70° C. Stock cultures maintained on agar (2% Difco) plates of LB were used to inoculate 50 mL cultures in liquid LB. E. coli was grown at 37° C. for 18 h. Bacteria were grown as a microbial biofilm using a Calgary Biofilm Device (CBD), commercially available as the MBEC™ assay, featuring 96 pegs protruding down from a microtiter plate lid and fitting into the wells of a standard 96-well microtiter plate. This device allows 96 identical biofilms to grow on the pegs at a time. Biofilms of E. coli were grown in each well using 150 μL of the culture diluted to 1×10^7 CFU (colony forming unit) following previous calibration. The biofilms were grown at 37° C. for 24 h in a shaker at 150 rpm.
The minimum inhibitory concentration (MIC) represents the lowest concentration of antimicrobial required to inhibit the visible growth of a planktonic bacterial population. The MIC was determined using the CBD.^17, 18, 20 Biofilms were formed on the peg surface of the CBD as described above and then transferred to a 96-well microtiter plate containing 200 μL of saline (0.85% NaCl aqueous solution) and washed for 5 min to remove non-adherent bacteria. The biofilms were transferred to a plate containing 200 μL of LB with a gradient concentration of the OPEs (challenge plate). Each concentration was repeated eight times (one row of the plate). The biofilms were then incubated in the dark at 37° C. for 24 h. To determine the MIC, the growth of bacteria was evaluated in the challenge plate after incubation. The optical density of each well was measured at 600 nm and the MIC was calculated for 90% inhibition of growth compared with biofilms grown in LB only.

E. coli biofilms = experiment: Minimum biofilm eradication concentration (MBEC) with the Calgary Biofilm Device; format: cell-based, Escherichia coli K-12; conditions: for MBEC (light) / MBEC (dark): E. coli biofilm; for MBEC (light): 1 h near-UV light (300-400 nm); for MBEC (dark): 24 h incubation in the dark
Experimental: as §1
The Minimum biofilm eradication concentration (MBEC) is the lowest concentration at which bacteria from a biofilm fail to regrow. The MBEC was also measured using the CBD and detailed procedure has been described elsewhere.^17, 18, 20 Biofilms were formed and washed as described above. The biofilms were then transferred to a plate containing saline with a gradient concentration of the OPEs (challenge plate). The samples exposed to light were incubated for 1 h in a LuzChem ORG photoreactor using Hitachi FL8BL-B (λ=300-400 nm) lamps, whereas the samples kept in the dark, were incubated for 24 h in a shaker at 150 rpm. The biofilms were then removed from the challenge plate and washed twice in a plate of saline solution to remove traces of OPEs. The biofilms were placed in a plate containing LB media (recovery plate) and sonicated for 10 min in an ultrasonic cleaner (VWR 97043-964) in order to recover the biofilm in the media solution through vibration. The recovery plate containing the biofilms was incubated in the dark at 37° C. for 24 h. To determine the MBEC, the growth of bacteria was evaluated in the recovery plate after incubation. […] Bacterial grown in a specific well indicates regrowth of planktonic bacteria from surviving biofilm, while clear wells indicate the eradication of the biofilms and the lack of bacteria regrowth.

[1] = Singlet oxygen quantum yield, emission at 1270 nm; format: physicochemical; conditions: CD3OD, 2'-acetonaphthone (ΦΔ = 0.79) as actinometer
Source text: We carried out transient absorption experiments in methanol and water solutions. […] The lifetime of the transient absorption is in the microsecond range and in each case it is efficiently quenched by O2 indicating the absorption is due to the triplet excited state. By examination of the initial amplitudes of the transient absorption (ΔA, t=0, Table 1), we were able to qualitatively determine the relative triplet yield of these oligomers. […] To substantiate our hypothesis, we carried out studies to observe singlet oxygen emission in deuterated methanol (as the life time of the singlet oxygen is very short in […]).^21 As anticipated, each of the oligomers is capable of sensitizing the formation of singlet oxygen as observed by its characteristic emission at 1270 nm. Of the oligomers studied, (C) and (E) show a higher quantum yield for singlet oxygen generation (ΦΔ) which corroborates well with the photophysical studies described above.
Absorption and fluorescence spectra were recorded on a Cary 100 UV-Vis spectrophotometer and a Photon Technology International spectrofluorometer, respectively. The optical density of the solutions was adjusted to ˜0.7 at the excitation wavelength (355 nm) with the laser energy set at ˜7 mJ. Solutions were purged with argon for 45 min before making transient absorption spectroscopy measurements. Singlet oxygen quantum yields were measured using a Photon Technology International Quantamaster near-IR spectrophotometer equipped with an InGaAs photodiode detector, optical chopper and a lock in amplifier. See Table 1 and FIGS. 1-2 for results.

S. aureus = experiment: Viability of S. aureus cells after UV exposure or dark incubation with oligomer solution; format: cell-based; conditions: for killing / deactivation of S. aureus: 10 min UV irradiation, 1 μg/mL printed for EO-OPE-DABCO
Experimental: FIG. 24 is a graph showing the viability of S. aureus cells with 1 μg/mL and 10 μg/mL of OPE-DABCO and EO-OPE-DABCO solution following exposure to UV light and incubation in dark.
[drawing 28] containing quaternary ammonium pendant groups based on 1,4-diazabicyclo-[2.2.2.]-octane (DABCO). It has been shown that the incorporation of the DABCO group into antimicrobials might amplify its ability to diffuse into the bacterial cell wall due to similarities between this moiety and the lipid layer. [Ref: Kenawy, E. R., S. D. Worley, and R. Broughton, The chemistry and applications of antimicrobial polymers: A state-of-the-art review. Biomacromolecules, 2007. 8(5): p. 1359-1384] Therefore, the binding of antimicrobials to the cytoplasmic membrane of the bacteria is increased by both ionic and van der Waals interactions. [Ref: Kenawy, E. R., S. D. Worley, and R. Broughton, The chemistry and applications of antimicrobial polymers: A state-of-the-art review. Biomacromolecules, 2007. 8(5): p. 1359-1384] These two oligomers have been employed to compare their antimicrobial activity both in the dark and under the UV light in regard to their structure difference.

[2] = Escherichia coli, K12BIOFILMS, read-out: MIC

Row | ΦΔ (quantum yield for singlet oxygen generation) [1] | Compound | MIC (E. coli K12 biofilms; [2]) [µg/mL] | MIC (E. coli K12 biofilms) [µg/mL] | MBEC (light) (E. coli biofilms) [µg/mL] | MBEC (dark) (E. coli biofilms) [µg/mL] | killing / deactivation of S. aureus (S. aureus) [%] | bacteria surviving (S. aureus; S. aureus, 10 min incubation in the dark) [%] | killing of E. coli biofilm under near-UV light exposure (E. coli biofilms; 1 h near-UV, in the concentration range tested) | dark killing of E. coli biofilm (E. coli biofilms; 24 h dark, concentration range <1000 μg/mL) | deactivation of S. aureus with increasing irradiation time (S. aureus; UV, irradiation longer than 10 min (FIG. 24)) [%]
1 | 0.20 ± 0.02 | CCCCCC[N+]12CC[N+](CCCOc3ccc(C#Cc4ccc(C#Cc5ccc(OCCC[N+]67CC[N+](CCCCCC)(CC6)CC7)cc5)cc4)cc3)(CC1)CC2 [oligomer (B)] | 14 | 14.0 | 60 | 200 | 100 | < 10 | – | – | –
2 | 0.34 ± 0.03 | CCCCCC[N+]12CC[N+](CCCOc3cc(C#Cc4ccc(C(=O)OCC)cc4)c(OCCC[N+]45CC[N+](CCCCCC)(CC4)CC5)cc3C#Cc3ccc(C(=O)OCC)cc3)(CC1)CC2 [oligomer (A)] | 52 | 51.7 | >500 | >1000 | ~75 | – | did not show any killing | did not exhibit any dark killing | ~99
3 | – | NC[C@H]1O[C@H](O[C@H]2[C@H](O)[C@@H](O[C@H]3O[C@H](CO)[C@@H](O)[C@H](N)[C@H]3O)[C@H](N)C[C@@H]2N)[C@H](O)[C@@H](O)[C@@H]1O [kanamycin, reference compound] | 11.2 (≈ 23.1 µM) | – | – | >1000 | – | – | – | – | –
4 | 0.46 ± 0.02 | CCCCCC[N+]12CC[N+](CCCOc3ccc(C#Cc4ccc(C#Cc5ccc(OCCC[N+]67CC[N+](CCCCCC)(CC6)CC7)cc5)s4)cc3)(CC1)CC2 [oligomer (C)] | 15.8 | – | 60 | 150 | – | – | – | – | –
